Patent publication US6452005B1, “JAK-3 inhibitors for treating allergic disorders” (Parker Hughes Institute, priority 1999, dated 2002)

Legend:
SYK = biological target: T1, SYK (Homo sapiens, UniProt P43405); test: Immune complex kinase assay, SYK from Sf21 cells; format: biochemical; conditions: concentrations as high as 350 μM
T1 construct: made in house; host or cells: Sf21 insect cells, baculovirus
Description: (§1) Immune Complex Kinase Assays.

human JAK3 = biological target: T2, human JAK3 (Homo sapiens, UniProt P52333); test: JAK3 kinase inhibition (Table 1 IC50, immune complex kinase assay); format: biochemical; conditions: Table 1; measured inhibition values for JAK3 kinase
T2 construct: KL-2 EBV-transformed human lymphoblastoid B cells (native JAK3 kinase assays); endogenous in cells; host or cells: KL-2 EBV-transformed human lymphoblastoid B cell line
T2 sequence (P52333 1-1124): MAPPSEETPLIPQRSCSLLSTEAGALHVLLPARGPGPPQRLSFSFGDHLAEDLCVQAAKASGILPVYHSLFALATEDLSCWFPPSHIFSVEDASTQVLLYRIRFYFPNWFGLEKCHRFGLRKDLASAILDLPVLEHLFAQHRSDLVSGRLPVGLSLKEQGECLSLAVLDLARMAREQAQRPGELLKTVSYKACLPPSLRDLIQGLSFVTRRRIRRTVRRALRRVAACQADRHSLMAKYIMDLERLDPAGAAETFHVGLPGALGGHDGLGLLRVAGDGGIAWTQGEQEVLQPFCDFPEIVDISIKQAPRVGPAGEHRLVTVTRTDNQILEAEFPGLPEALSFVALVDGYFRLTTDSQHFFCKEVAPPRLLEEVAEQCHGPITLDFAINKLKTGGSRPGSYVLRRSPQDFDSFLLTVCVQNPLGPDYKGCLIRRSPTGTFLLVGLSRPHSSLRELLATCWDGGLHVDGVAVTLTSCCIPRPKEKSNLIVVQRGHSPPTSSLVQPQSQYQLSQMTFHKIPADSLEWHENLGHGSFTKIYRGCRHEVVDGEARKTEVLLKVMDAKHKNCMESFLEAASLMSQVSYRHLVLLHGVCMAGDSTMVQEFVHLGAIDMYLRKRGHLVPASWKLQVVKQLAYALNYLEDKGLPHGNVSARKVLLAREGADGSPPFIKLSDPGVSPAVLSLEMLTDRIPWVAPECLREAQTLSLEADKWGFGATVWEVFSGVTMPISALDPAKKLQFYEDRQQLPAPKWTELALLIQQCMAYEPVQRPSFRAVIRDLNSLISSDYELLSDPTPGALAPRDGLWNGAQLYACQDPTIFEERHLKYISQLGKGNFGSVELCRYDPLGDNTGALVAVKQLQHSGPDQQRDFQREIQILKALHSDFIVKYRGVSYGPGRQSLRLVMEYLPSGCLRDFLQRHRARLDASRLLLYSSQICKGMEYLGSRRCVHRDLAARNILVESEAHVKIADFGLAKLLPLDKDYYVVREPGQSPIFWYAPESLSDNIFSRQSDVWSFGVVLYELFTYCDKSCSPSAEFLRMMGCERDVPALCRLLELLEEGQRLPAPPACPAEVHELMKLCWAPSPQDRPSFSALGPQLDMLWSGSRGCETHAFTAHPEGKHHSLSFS
Protocol: as §1
KL-2 EBV-transformed human lymphoblastoid B cells (native JAK3 kinase assays) or insect ovary cells (recombinant JAK3 kinase assays) were lysed with NP-40 lysis buffer (50 mM Tris, pH 8, 150 mM NaCl, 5 mM EDTA, 1% NP-40, 100 μM sodium orthovanadate, 100 μM sodium molybdate, 8 μg/ml aprotinin, 5 μg/ml leupeptin, and 500 μM PMSF) and centrifuged 10 minutes at 13000×g to remove insoluble material. Samples were immunoprecipitated with antisera prepared against JAK3. The antisera were diluted and immune complexes collected by incubation with 15 μl protein A Sepharose. After 4 washes with NP-40 lysis buffer, the protein A Sepharose beads were washed once in kinase buffer (20 mM MOPS, pH 7.0, 10 mM MgCl2) and resuspended in the same buffer. Reactions were initiated by the addition of 25 μCi γ[^32P] ATP (5000 Ci/mMole) and unlabeled ATP to a final concentration of 5 μM. Reactions were terminated by boiling for 4 min in SDS sample buffer. Samples were run on 9.5% SDS polyacrylamide gels and labeled proteins will be detected by autoradiography. Following electrophoresis, kinase gels were dried onto Whatman 3M filter paper and subjected to phosphoimaging on a Molecular Imager (Bio-Rad, Hercules, Calif.) as well as autoradiography on film. For each drug concentration, a kinase activity index (KA) was determined by comparing the kinase activity in phosphorimager units (PIU) to that of the baseline sample. In some experiments, cold kinase assays were performed, as described (Uckun et. al., 1998, Clin. Cancer Res., 4:901-912).

BALB/c mice = test: Passive systemic anaphylaxis model; format: in vivo; conditions: pretreated mice
Protocol: FIG. 14B is a photograph showing plasma extravasation during systemic anaphylaxis, evaluated as described in the Examples.
FIG. 14C is a photograph showing results of histopathologic evaluation of mast cell degranulation. Ears were removed 1 hour after the antigen challenge from vehicle treated as well as WHI-P131 treated mice. Formalin-fixed thin sections (3-5 μm) of ears from were stained with Avidin-FITC.
FIG. 4D is a graph showing blood histamine levels of sensitized mice analyzed after antigen challenge. Blood was collected by retro-orbital bleeding and histamine levels were measured by ELISA. Histamine levels are expressed as nM. The histamine levels in the blood of PBS treated mice and IgE/antigen stimulated mice was 493±131 and 7527±2102 nM respectively. The results are the mean±SEM values; n=3.
To induce passive systemic anaphylaxis, BALB/c mice were sensitized with […] DNP-IgE intravenously. At 24 hours DNP-BSA (2 mg) was administered intravenously with 0.5% Evans blue (200 μl). For assessment of vascular leak, animals were sacrificed 30 minutes after the antigen challenge and their foot pads were examined for blue coloration. Histamine levels in plasma were measured 5 minutes after the antigen challenge. […] For histopathologic evaluation of tissue mast cell degranulation, ears of mice were removed 1 hour after the DNP-BSA injection and fixed in 10 percent buffered formalin. Processed thin sections (3-5 μm) were stained with Avidin-FITC (6.25 μg/ml) for 2 hours, washed with PBS to remove unbound dye and then mounted in buffered glycerol, 30 mM triethylenediamine, pH 8.6 (Malaviya et. al., 1994, J. Clin. Invest., 93:1645-1653). In the murine model for antigen induced active anaphylaxis, mice were sensitized with 2 mg BSA in 200 μl aluminum hydroxide gel (Reheis Inc., Berkeley, N.J.). Ten days later anaphylactic shock was induced by the i.v. injection of the animals with 200 μg BSA.

[1] = test system: mouse bone marrow mast cells; conditions: data not shown

## COc1cc2ncnc(Nc3ccc(O)cc3)c2cc1OC [WHI-P131, 4-(4′-Hydroxylphenyl)-amino-6,7-dimethoxyquinazoline]
SYK
  effect on enzymatic activity of SYK: did not affect
Human JAK3
  IC50: 78 µM
BALB/c mice; 5 minutes after antigen challenge
  plasma histamine response: substantially reduced
BALB/c mice; 30 min after antigen challenge
  blue coloring of foot pads (plasma exudation): no significant blue coloring
BALB/c mice; ears, after IgE/antigen challenge
  fluorescence intensity of avidin-FITC stained tissue mast cells (degranulation): no reduction in fluorescence intensity
[1]
  IgE receptor/FcεRI-mediated release of LTC4: markedly reduced
  IgE receptor/FcεRI-mediated release of histamine: markedly reduced
